According to the kinase profiling compilation of Christmann-Franck et al. (2016):

Tests used:
Assay in all cases: KINOMEscan competition binding
Conditions in all cases: compound 10.0 µM
[1] = target: MAP3K6 (human) (UniProt O95382)
[2] = target: MAP2K5 (human) (UniProt Q13163)
[3] = system: EGFR (human), P00533 [G719S]
[4] = target: GRK4 (human) (UniProt P32298)
[5] = target: CDK13 (human) (UniProt Q14004)
[6] = target: GRK1 (human) (UniProt Q15835)
[7] = target: STK39 (human) (UniProt Q9UEW8)
[8] = target: ICK (human) (UniProt Q9UPZ9)
[9] = target: IRAK4 (human) (UniProt Q9NWZ3)
[10] = target: DYRK1A (human) (UniProt Q13627)
[11] = target: DDR1 (human) (UniProt Q08345)
[12] = target: HUNK (human) (UniProt P57058)
[13] = target: PRKCI (human) (UniProt P41743)
[14] = target: STK38 (human) (UniProt Q15208)
[15] = target: CDKL3 (human) (UniProt Q8IVW4)
[16] = target: NEK4 (human) (UniProt P51957)
[17] = target: PKN3 (M.tuberculosis) (UniProt Q6P5Z2)
[18] = target: TAOK2 (human) (UniProt Q9UL54)
[19] = target: PIP4K2C (human) (UniProt Q8TBX8)
[20] = target: STK32A (human) (UniProt Q8WU08)
[21] = target: EGFR (human) (UniProt P00533)
[22] = target: PLK2 (human) (UniProt Q9NYY3)
[23] = target: MAK (human) (UniProt P20794)
[24] = target: PIK3C2G (human) (UniProt O75747)
[25] = target: PIK3CA (human) (UniProt P42336)
[26] = target: TRPM6 (human) (UniProt Q9BX84)
[27] = target: NIM1 (human) (UniProt Q8IY84)
[28] = target: MET (human) (UniProt P08581)
[29] = target: PRPF4B (human) (UniProt Q13523)
[30] = system: PIK3CA (human), P42336 [C420R]
[31] = target: VRK2 (human) (UniProt Q86Y07)
[32] = target: PIP5K1C (human) (UniProt O60331)
[33] = target: BTK (human) (UniProt Q06187)
[34] = target: IRAK1 (human) (UniProt P51617)
[35] = target: DSTYK (human) (UniProt Q6XUX3)
[36] = target: SNRK (human) (UniProt Q9NRH2)
[37] = system: EGFR (human), P00533 [L861Q]
[38] = target: CDK4 CCND1 (human) (UniProt P11802+P24385)
[39] = target: CDK4 CCND3 (human) (UniProt P11802+P30281)
[40] = system: CPK1 (P.falciparum)

CDK13 (human), sequence (Q14004 whole entry, looked up): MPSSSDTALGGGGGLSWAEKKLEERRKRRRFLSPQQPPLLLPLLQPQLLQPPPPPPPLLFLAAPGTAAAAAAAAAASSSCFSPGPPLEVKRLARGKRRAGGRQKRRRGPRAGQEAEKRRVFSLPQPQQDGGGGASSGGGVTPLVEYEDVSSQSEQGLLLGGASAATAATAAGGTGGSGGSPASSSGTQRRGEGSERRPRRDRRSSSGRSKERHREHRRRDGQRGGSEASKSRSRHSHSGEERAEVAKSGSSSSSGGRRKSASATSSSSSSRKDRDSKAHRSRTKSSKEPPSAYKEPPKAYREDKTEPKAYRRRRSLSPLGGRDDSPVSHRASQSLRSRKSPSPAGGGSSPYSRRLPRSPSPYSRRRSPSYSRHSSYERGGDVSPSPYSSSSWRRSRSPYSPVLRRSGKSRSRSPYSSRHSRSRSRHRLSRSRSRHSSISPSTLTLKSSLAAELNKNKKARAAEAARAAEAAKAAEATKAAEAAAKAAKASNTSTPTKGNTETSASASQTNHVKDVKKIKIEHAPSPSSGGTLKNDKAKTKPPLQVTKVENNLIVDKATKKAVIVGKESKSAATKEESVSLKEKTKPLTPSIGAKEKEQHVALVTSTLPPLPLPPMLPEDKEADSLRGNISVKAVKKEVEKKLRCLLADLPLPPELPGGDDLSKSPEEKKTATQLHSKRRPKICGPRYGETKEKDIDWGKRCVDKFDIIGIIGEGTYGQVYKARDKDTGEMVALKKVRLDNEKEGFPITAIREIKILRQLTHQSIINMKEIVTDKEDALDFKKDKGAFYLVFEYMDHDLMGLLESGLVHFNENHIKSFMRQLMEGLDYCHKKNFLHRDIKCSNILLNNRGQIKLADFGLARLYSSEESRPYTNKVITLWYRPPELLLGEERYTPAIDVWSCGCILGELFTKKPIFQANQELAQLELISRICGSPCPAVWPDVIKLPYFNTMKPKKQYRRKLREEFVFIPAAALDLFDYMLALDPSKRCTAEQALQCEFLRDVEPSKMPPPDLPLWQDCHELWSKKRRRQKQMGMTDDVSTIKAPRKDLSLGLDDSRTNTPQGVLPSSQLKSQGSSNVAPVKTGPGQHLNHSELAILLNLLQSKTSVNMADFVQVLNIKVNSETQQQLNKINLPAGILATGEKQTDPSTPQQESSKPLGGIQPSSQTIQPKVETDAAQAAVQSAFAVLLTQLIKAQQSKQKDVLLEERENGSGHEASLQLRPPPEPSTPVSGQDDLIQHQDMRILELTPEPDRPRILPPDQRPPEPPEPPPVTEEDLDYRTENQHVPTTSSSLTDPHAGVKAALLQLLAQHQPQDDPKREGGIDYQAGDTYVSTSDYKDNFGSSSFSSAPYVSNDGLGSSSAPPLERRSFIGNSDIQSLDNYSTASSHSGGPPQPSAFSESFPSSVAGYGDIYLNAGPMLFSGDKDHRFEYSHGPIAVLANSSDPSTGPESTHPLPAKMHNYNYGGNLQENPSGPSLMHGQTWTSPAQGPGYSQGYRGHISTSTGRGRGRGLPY
NEK4 (human), sequence (P51957 whole entry, looked up): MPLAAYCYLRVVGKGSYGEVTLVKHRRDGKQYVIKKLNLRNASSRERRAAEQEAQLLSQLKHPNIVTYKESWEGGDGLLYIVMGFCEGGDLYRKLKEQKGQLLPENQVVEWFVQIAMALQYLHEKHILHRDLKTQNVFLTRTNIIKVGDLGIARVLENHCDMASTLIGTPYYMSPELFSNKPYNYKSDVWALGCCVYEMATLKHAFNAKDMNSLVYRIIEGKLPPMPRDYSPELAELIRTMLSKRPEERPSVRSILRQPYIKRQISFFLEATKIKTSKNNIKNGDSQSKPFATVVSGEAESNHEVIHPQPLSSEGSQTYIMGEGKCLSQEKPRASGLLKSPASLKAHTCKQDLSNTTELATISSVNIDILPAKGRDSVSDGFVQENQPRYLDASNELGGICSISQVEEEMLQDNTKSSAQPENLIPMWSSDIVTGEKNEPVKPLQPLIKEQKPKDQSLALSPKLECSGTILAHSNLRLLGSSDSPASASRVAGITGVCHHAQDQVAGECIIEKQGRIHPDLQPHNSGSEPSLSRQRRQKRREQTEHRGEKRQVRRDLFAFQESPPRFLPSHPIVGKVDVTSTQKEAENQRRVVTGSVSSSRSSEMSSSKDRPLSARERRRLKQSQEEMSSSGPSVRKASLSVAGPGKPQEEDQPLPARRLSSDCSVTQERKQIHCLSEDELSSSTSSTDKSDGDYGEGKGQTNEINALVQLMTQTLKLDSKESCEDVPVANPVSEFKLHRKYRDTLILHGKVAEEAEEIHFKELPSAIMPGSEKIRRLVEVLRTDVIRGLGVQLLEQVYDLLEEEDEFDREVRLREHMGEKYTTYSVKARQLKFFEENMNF
GRK4 (human), sequence (P32298 whole entry, looked up): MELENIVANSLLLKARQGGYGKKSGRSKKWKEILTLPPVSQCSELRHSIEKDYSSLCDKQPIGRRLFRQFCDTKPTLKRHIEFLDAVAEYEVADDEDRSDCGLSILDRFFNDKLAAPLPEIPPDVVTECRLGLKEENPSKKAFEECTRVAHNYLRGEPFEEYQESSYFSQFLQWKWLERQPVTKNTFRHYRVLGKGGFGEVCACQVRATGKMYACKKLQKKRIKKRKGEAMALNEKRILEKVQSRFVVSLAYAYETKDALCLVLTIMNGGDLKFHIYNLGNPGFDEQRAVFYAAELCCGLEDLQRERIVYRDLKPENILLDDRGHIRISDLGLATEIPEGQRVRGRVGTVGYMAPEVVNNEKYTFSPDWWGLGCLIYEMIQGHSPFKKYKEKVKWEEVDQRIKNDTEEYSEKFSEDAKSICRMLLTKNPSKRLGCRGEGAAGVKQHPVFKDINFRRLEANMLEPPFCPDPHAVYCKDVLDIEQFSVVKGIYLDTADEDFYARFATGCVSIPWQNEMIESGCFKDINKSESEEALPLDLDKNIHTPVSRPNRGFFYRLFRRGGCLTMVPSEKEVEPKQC
PIP5K1C (human), sequence (O60331 whole entry, looked up): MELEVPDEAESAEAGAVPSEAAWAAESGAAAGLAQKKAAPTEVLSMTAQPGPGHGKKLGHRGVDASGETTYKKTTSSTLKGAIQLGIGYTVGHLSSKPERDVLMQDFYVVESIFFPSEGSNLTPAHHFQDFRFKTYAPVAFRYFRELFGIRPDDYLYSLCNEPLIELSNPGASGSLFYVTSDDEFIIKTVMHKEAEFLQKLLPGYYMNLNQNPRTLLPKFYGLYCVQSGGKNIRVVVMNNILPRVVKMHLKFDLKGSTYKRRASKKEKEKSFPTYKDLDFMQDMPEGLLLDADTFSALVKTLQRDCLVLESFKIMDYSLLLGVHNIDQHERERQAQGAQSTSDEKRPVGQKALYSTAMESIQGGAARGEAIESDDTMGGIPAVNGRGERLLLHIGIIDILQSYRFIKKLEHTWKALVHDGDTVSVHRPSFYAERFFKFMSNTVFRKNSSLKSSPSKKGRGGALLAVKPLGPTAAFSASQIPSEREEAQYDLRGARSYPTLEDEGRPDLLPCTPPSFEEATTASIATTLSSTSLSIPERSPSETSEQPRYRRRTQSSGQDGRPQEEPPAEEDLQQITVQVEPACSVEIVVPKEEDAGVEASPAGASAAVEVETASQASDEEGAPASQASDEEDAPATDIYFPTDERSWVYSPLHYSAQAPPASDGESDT
PIK3C2G (human), sequence (O75747 whole entry, looked up): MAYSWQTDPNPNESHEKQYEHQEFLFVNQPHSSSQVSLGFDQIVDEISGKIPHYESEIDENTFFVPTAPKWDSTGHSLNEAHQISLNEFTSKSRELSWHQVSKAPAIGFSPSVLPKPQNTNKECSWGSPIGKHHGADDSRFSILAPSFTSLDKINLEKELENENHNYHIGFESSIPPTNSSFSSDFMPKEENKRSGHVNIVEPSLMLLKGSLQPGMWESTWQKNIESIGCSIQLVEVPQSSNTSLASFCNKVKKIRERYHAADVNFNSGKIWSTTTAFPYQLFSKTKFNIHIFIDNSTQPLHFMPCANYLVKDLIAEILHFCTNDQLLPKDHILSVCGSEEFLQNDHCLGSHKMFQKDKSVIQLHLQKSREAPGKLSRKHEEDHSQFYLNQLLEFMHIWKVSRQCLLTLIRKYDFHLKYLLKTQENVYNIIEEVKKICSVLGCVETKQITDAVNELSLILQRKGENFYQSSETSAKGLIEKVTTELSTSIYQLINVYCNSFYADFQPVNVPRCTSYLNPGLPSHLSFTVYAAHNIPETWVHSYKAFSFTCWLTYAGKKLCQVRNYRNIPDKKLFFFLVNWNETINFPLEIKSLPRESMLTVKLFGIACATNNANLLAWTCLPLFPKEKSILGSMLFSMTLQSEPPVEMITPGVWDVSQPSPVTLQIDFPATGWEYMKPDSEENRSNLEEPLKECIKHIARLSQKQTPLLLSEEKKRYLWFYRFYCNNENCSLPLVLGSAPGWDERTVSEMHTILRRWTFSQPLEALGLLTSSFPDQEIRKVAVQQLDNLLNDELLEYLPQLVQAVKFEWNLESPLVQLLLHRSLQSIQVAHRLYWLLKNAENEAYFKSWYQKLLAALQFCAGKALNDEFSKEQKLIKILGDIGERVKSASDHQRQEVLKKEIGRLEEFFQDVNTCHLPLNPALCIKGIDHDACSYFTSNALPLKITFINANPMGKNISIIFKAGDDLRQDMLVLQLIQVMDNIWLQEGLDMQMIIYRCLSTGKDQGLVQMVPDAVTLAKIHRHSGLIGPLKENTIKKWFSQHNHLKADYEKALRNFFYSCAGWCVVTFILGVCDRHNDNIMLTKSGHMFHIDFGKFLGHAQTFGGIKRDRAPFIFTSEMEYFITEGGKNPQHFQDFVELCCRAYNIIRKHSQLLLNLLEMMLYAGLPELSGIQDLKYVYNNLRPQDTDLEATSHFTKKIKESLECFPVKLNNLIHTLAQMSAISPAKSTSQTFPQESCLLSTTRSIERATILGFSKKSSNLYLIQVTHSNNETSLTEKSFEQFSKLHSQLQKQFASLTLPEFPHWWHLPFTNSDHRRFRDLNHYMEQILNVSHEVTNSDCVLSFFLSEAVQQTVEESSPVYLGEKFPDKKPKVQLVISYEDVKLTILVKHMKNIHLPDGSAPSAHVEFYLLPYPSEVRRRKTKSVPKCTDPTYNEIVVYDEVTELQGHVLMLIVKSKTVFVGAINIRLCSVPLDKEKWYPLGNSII

| SMILES | kinase still bound, per cent of control [1] [%] | kinase still bound, per cent of control [2] [%] | kinase still bound, per cent of control [4] [%] | kinase still bound, per cent of control [5] [%] | kinase still bound, per cent of control [6] [%] | kinase still bound, per cent of control [7] [%] | kinase still bound, per cent of control [8] [%] | kinase still bound, per cent of control [9] [%] | kinase still bound, per cent of control [10] [%] | kinase still bound, per cent of control [12] [%] | kinase still bound, per cent of control [14] [%] | kinase still bound, per cent of control [15] [%] | kinase still bound, per cent of control [16] [%] | kinase still bound, per cent of control [17] [%] | kinase still bound, per cent of control [18] [%] | kinase still bound, per cent of control [19] [%] | kinase still bound, per cent of control [20] [%] | kinase still bound, per cent of control [22] [%] | kinase still bound, per cent of control [23] [%] | kinase still bound, per cent of control [24] [%] | further results |
| --- | --- | --- | --- | --- | --- | --- | --- | --- | --- | --- | --- | --- | --- | --- | --- | --- | --- | --- | --- | --- | --- |
| COc1cc(N2CCN(C)CC2)ccc1Nc1nc(N)c(C(=O)c2c(Cl)cccc2Cl)s1 | 100 | 100 | 85 | 83 | 100 | 66 | 7.4 | 96 | 72 | 100 | 100 | 86 | 96 | 80 | 8.2 | 46 | 88 | 91 | 26 | 100 | kinase still bound, per cent of control [3]: 88%; kinase still bound, per cent of control [11]: 98%; kinase still bound, per cent of control [13]: 93%; kinase still bound, per cent of control [21]: 100%; kinase still bound, per cent of control [25]: 99%; kinase still bound, per cent of control [26]: 5.2%; kinase still bound, per cent of control [27]: 80%; kinase still bound, per cent of control [28]: 100%; kinase still bound, per cent of control [29]: 100%; kinase still bound, per cent of control [30]: 100%; kinase still bound, per cent of control [31]: 100%; kinase still bound, per cent of control [32]: 85%; kinase still bound, per cent of control [33]: 100%; kinase still bound, per cent of control [34]: 92%; kinase still bound, per cent of control [35]: 52%; kinase still bound, per cent of control [36]: 82%; kinase still bound, per cent of control [37]: 100% |
| CCOc1cc2ncc(C#N)c(Nc3ccc(OCc4ccccn4)c(Cl)c3)c2cc1NC(=O)/C=C/CN(C)C | 87 | 1.8 | 68 | 100 | 84 | 84 | 100 | 96 | 99 | 86 | 81 | 100 | 100 | 100 | 92 | 100 | 77 | 85 | 100 | 100 | kinase still bound, per cent of control [38]: 71%; kinase still bound, per cent of control [13]: 90%; kinase still bound, per cent of control [39]: 78%; kinase still bound, per cent of control [25]: 86%; kinase still bound, per cent of control [27]: 90%; kinase still bound, per cent of control [40]: 88%; kinase still bound, per cent of control [28]: 84%; kinase still bound, per cent of control [29]: 92%; kinase still bound, per cent of control [31]: 67%; kinase still bound, per cent of control [32]: 100%; kinase still bound, per cent of control [33]: 4.4%; kinase still bound, per cent of control [34]: 65%; kinase still bound, per cent of control [35]: 69%; kinase still bound, per cent of control [36]: 51% |
| C[C@@H](Oc1cc(-n2cnc3ccc(CN4CCN(C)CC4)cc32)sc1C(N)=O)c1ccccc1C(F)(F)F | 75 | 43 | 16 | 26 | 50 | 11 | 85 | 43 | 100 | 78 | 71 | 100 | 69 | 27 | 94 | 62 | 66 | 2.6 | 100 | 40 | kinase still bound, per cent of control [3]: 100%; kinase still bound, per cent of control [38]: 91%; kinase still bound, per cent of control [11]: 100%; kinase still bound, per cent of control [39]: 70%; kinase still bound, per cent of control [21]: 87%; kinase still bound, per cent of control [25]: 52%; kinase still bound, per cent of control [26]: 100%; kinase still bound, per cent of control [27]: 30%; kinase still bound, per cent of control [40]: 62%; kinase still bound, per cent of control [28]: 76%; kinase still bound, per cent of control [29]: 39%; kinase still bound, per cent of control [30]: 55%; kinase still bound, per cent of control [31]: 100%; kinase still bound, per cent of control [32]: 18%; kinase still bound, per cent of control [33]: 100%; kinase still bound, per cent of control [34]: 23%; kinase still bound, per cent of control [35]: 34%; kinase still bound, per cent of control [36]: 100%; kinase still bound, per cent of control [37]: 100% |
